Measured values as given in ChEMBL document CHEMBL5614376, “Discovery of MT-1207: A Novel, Potent Multitarget Inhibitor as a Promising Clinical Candidate for the Treatment of Hypertension” (J Med Chem, 2024).
Calls of active or inactive are those of the source. The rule behind the calls is not given here.

Key:
[1] = Metabolic stability in human plasma assessed as enzymatic hydrolysis at 50 to 10000 ng/ml incubated upto 120 mins; type: ADME, cell-free; settings: 2 h, dose 50-10000 ng/ml
[2] = Oral bioavailability in Sprague-Dawley rat at 1 mg/kg measured for 24 hrs by UPLC/MS/MS analysis; type: ADME, organism-based; settings: in vivo
[3] = Plasma protein binding in Beagle dog at 1 uM incubated for 30 mins; type: ADME, cell-free, Canis lupus familiaris; settings: read-out: PPB (converted)
[4] = Half life in Sprague-Dawley rat at 3 mg/kg, po measured for 24 hrs by UPLC/MS/MS analysis; type: ADME, organism-based; settings: in vivo
[5] = Metabolic stability in Beagle dog plasma assessed as enzymatic hydrolysis at 50 to 10000 ng/ml incubated upto 120 mins; type: ADME, cell-free, Canis lupus familiaris; settings: 2 h, dose 50-10000 ng/ml
[6] = Apparent volume of distribution during terminal phase in Sprague-Dawley rat at 3 mg/kg, po measured for 24 hrs by UPLC/MS/MS analysis; type: ADME, organism-based; settings: in vivo, read-out: Vz/F
[7] = Cmax in male Sprague-Dawley rat at 100 mg/kg, po qd treated for 13 weeks consecutively measured after recovery period on day 91 by UP/LC/MS/MS analysis; type: ADME, organism-based; settings: in vivo, time 91 day
[8] = Apparent oral clearance in Sprague-Dawley rat at 1 mg/kg, iv measured for 24 hrs by UPLC/MS/MS analysis; type: ADME, organism-based; settings: in vivo
[9] = Tmax in male Sprague-Dawley rat at 100 mg/kg, po measured on day 1 by UP/LC/MS/MS analysis; type: ADME, organism-based; settings: in vivo, time 1 day
[10] = Tmax in male Sprague-Dawley rat at 10 mg/kg, po measured on day 1 by UP/LC/MS/MS analysis; type: ADME, organism-based; settings: in vivo, time 1 day
[11] = AUC (0 to t) in Sprague-Dawley rat at 3 mg/kg, po measured for 24 hrs by UPLC/MS/MS analysis; type: ADME, organism-based; settings: in vivo
[12] = Cmax in female Sprague-Dawley rat at 100 mg/kg, po measured on day 1 by UP/LC/MS/MS analysis; type: ADME, organism-based; settings: in vivo, time 1 day
[13] = Cmax in male Sprague-Dawley rat at 30 mg/kg, po qd treated for 13 weeks consecutively measured after recovery period on day 91 by UP/LC/MS/MS analysis; type: ADME, organism-based; settings: in vivo, time 91 day
Rattus norvegicus [14] = assay: Effect on postural hypotension in Sprague-Dawley rat assessed as change in systolic blood pressure at 2.5 mg/kg, po treated for >30 mins followed by induction of postural hypotension measured 20 secs after postural change (reference value: 129 +/- 11 mmHg); type: functional; settings: time > 30.33 min, 0.5055 h
Rattus norvegicus [15] = assay: Effect on postural hypotension in Sprague-Dawley rat assessed as change in systolic blood pressure at 5 mg/kg, po treated for >30 mins followed by induction of postural hypotension measured 40 secs after postural change (reference value: 128 +/- 11 mmHg); type: functional; settings: time > 30.67 min, 0.5112 h
[16] = Cmax in Sprague-Dawley rat at 1 mg/kg, po measured for 24 hrs by UPLC/MS/MS analysis; type: ADME, organism-based; settings: in vivo
[17] = Plasma protein binding in Beagle dog at 0.1 uM incubated for 30 mins; type: ADME, cell-free, Canis lupus familiaris; settings: read-out: PPB (converted)
[18] = Acute toxicity in Sprague-Dawley rat with single oral administration measured for 14 days; settings: in vivo, time 14 day
[19] = AUC (0 to t) in female Sprague-Dawley rat at 10 mg/kg, po measured on day 1 by UP/LC/MS/MS analysis; type: ADME, organism-based; settings: in vivo, time 1 day
[20] = Metabolic stability in Beagle dog liver microsomes assessed as drug metabolism at 10 umol/L incubated upto 120 mins in presence of NADPH by LC-MS/MS analysis; type: ADME, Canis lupus familiaris, Microsome; settings: 2 h, 10 µM, dose 10 µmol/L
Rattus norvegicus [21] = assay: Antihypertensive activity in 2K2C renovascular hypertensive Sprague-Dawley rat model assessed as systolic blood pressure at 10 mg/kg, po measured after 9 weeks (Rvb ~ 202 mmHg); type: functional
[22] = Metabolic stability in rat plasma assessed as enzymatic hydrolysis at 50 to 10000 ng/ml incubated upto 120 mins; type: ADME, cell-free; settings: 2 h, dose 50-10000 ng/ml
[23] = Metabolic stability in rat liver microsomes assessed as drug metabolism at 10 umol/L incubated upto 120 mins in presence of NADPH by LC-MS/MS analysis; type: ADME, Microsome; settings: 2 h, 10 µM, dose 10 µmol/L
[24] = Plasma protein binding in human at 0.1 uM incubated for 30 mins; type: ADME, cell-free; settings: read-out: PPB (converted)
[25] = Half life in Sprague-Dawley rat at 1 mg/kg, iv measured for 24 hrs by UPLC/MS/MS analysis; type: ADME, organism-based; settings: in vivo
[26] = Metabolic stability in macaque liver microsomes assessed as drug elimination at 10 umol/L incubated for 5 mins in presence of NADPH by LC-MS/MS analysis; type: ADME, Microsome; settings: macaca, 10 µM, dose 10 µmol/L
[27] = Cmax in female Sprague-Dawley rat at 30 mg/kg, po qd treated for 13 weeks consecutively measured after recovery period on day 91 by UP/LC/MS/MS analysis; type: ADME, organism-based; settings: in vivo, time 91 day
[28] = AUC (0 to t) in female Sprague-Dawley rat at 100 mg/kg, po measured on day 1 by UP/LC/MS/MS analysis; type: ADME, organism-based; settings: in vivo, time 1 day
[29] = Toxicity in male Sprague-Dawley rat assessed as reduction in body weight at 100 mg/kg, po qd treated for 4 days consecutively; type: organism-based; set-up: scale not given: the % may be the effect or the level left; settings: in vivo, 96 h, time 4 day
Rattus norvegicus [30] = assay: Effect on postural hypotension in Sprague-Dawley rat assessed as change in systolic blood pressure at 10 mg/kg, po treated for >30 mins followed by induction of postural hypotension measured 5 secs after postural change (reference value: 126 +/- 12 mmHg); type: functional; settings: time > 30.08 min, 0.5013 h
Rattus norvegicus [31] = assay: Effect on serum K+ level in 2K2C renovascular hypertensive Sprague-Dawley rat model at 10 mg/kg, po measured after 9 weeks by biochemical analysis; type: functional, organism-based
[32] = Toxicity in Sprague-Dawley rat assessed as change in body weight at 100 mg/kg, po qd treated for 13 weeks consecutively measured post-cessation of treatment; type: organism-based; settings: in vivo, 2184 h
[33] = Plasma protein binding in human at 1 uM incubated for 30 mins; type: ADME, cell-free; settings: read-out: PPB (converted)
[34] = Metabolic stability in macaque liver microsomes assessed as compound remaining at 10 umol/L incubated upto 120 mins in presence of NADPH by LC-MS/MS analysis; type: ADME, Microsome; settings: macaca, dose 10 µmol/L, read-out: Stability
[35] = Metabolic stability in human liver microsomes assessed as drug elimination at 10 umol/L incubated for 5 mins in presence of NADPH by LC-MS/MS analysis; type: ADME, Microsome; settings: 10 µM, dose 10 µmol/L
[36] = Apparent volume of distribution during terminal phase in Sprague-Dawley rat at 1 mg/kg, iv measured for 24 hrs by UPLC/MS/MS analysis; type: ADME, organism-based; settings: in vivo
Rattus norvegicus [37] = assay: Effect on postural hypotension in Sprague-Dawley rat assessed as change in systolic blood pressure at 5 mg/kg, po treated for >30 mins followed by induction of postural hypotension measured 60 secs after postural change (reference value: 127 +/- 10 mmHg); type: functional; settings: time > 31 min
[38] = Apparent oral clearance in Sprague-Dawley rat at 3 mg/kg, po measured for 24 hrs by UPLC/MS/MS analysis; type: ADME, organism-based; settings: in vivo
[39] = AUC (0 to t) in male Sprague-Dawley rat at 100 mg/kg, po measured on day 1 by UP/LC/MS/MS analysis; type: ADME, organism-based; settings: in vivo, time 1 day

SMILES: Cl.c1ccc2c(c1)nnn2CCCCN1CCN(c2nsc3ccccc23)CC1
- Stability [1]: Stable
- bioavailability [2]: 11.7%
- fraction unbound at 0.5 h, 1 µM [3]: 0.006
- half-life [4]: 2.15 h
- Stability [5]: Stable
- Vd/F [6]: 22.4 L
- Cmax [7]: 538 ng/mL
- CL/F [8]: 25 L/h
- Tmax [9]: 1.3 h
- Tmax [10]: 1 h
- AUC(0-t) at 24 h [11]: 421 ng·h/mL
- Cmax [12]: 1080 ng/mL
- Cmax [13]: 238 ng/mL
- Activity (Rattus norvegicus [14]): 91 mmHg
- Activity (Rattus norvegicus [15]): 83 mmHg
- Cmax [16]: 33.3 ng/mL
- fraction unbound at 0.5 h, 0.1 µM [17]: 0.012
- MTD at 336 h [18]: > 1000 mg/kg
- AUC(0-t) at 24 h [19]: 344 ng·h/mL
- Drug metabolism [20]: Metabolite_Detected
- Activity (Rattus norvegicus [21]): 169 mmHg
- Stability [22]: Stable
- Drug metabolism [23]: Metabolite_Detected
- fraction unbound at 0.5 h, 0.1 µM [24]: 0.003
- half-life [25]: 1.3 h
- Drug excretion [26]: Active
- Cmax [27]: 333 ng/mL
- AUC(0-t) at 24 h [28]: 7910 ng·h/mL
- Activity [29]: ~ 5.4%
- Activity (Rattus norvegicus [30]): 81 mmHg
- Activity (Rattus norvegicus [31]): Active
- Activity [32]: Non-Toxic
- fraction unbound at 0.5 h, 1 µM [33]: 0.004
- remaining at 2 h, 10 µM [34]: 1.5%
- Drug excretion [35]: Active
- Vz/F [36]: 4.5 L
- Activity (Rattus norvegicus [37]): 83 mmHg
- CL/F [38]: 130 mL/min
- AUC(0-t) at 24 h [39]: 1460 ng·h/mL
